Assay results: article PMC9060145 (Skin Health and Disease, 2021)

What was measured:
[1] = molecular target: T1, CYP2C8 (Homo sapiens, UniProt P10632); experiment: Qualitative CYP2C8 screening, Vivid CYP2C8 Green kit, fluorimetry; assay type: biochemical; set-up: purchased Life Technologies; host or cells: Baculosomes; settings: recombinant CYP2C8 Baculosomes, probe Vivid DBOMF, 1 µM (1000 nM) compound, substrate DBOMF
T1 sequence (P10632 1-490): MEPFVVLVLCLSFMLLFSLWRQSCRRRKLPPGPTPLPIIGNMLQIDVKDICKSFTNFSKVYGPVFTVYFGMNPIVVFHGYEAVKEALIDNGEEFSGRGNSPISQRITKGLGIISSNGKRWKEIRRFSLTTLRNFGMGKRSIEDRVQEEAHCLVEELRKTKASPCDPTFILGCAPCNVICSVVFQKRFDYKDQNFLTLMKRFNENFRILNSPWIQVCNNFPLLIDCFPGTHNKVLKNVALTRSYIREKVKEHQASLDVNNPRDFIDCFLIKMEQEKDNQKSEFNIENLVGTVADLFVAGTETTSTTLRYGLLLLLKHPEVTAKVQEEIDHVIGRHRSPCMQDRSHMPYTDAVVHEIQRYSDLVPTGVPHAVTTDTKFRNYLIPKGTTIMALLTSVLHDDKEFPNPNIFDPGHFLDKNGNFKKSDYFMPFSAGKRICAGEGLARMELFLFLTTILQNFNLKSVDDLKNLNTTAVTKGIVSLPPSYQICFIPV
Experimental: CYP450 inhibition assays (excluding CYP19 and 1 µM CYP2C8) were performed as previously described.[31] Substrate metabolite formation was measured by HPLC‐MS/MS. Percent of control activity was determined by comparing metabolite peak areas with and without test compound. Qualitative screening of CYP2C8 (1 µM) and CYP19 is described in detail in Supporting Information. Reference compound IC50 values were determined by non‐linear regression analysis using Hill equation curve fitting.
A kinetic reaction was carried out for CYP2C8 screening in triplicate according to the Vivid? CYP450 Screening Kit manual protocol (MAN0003095). Briefly, a master pre-mix composed of CYP2C8 Baculosomes®, regeneration system of human P450 reductase/human cytochrome b5, and reaction buffer was prepared before adding 50 µL to each well in a black 96-well plate. Test compounds, positive inhibition control, and solvent controls were prepared as a 2.5X concentration with DMSO in reaction buffer of which 40 µL was dispensed into the 96-well plate. […] The test samples were pre-incubated at 37 °C for 15 min in the fluorescent microplate reader before adding a 10 µL mixture of substrate and NADP^+. Immediately, the plate was read at 2 min intervals over a 30 min time period at 37 °C. The raw data in relative fluorescent units (RFU) was analyzed according to the kinetic assay mode as outlined in the published protocol.

[2] = molecular target: T1, CYP2C8; experiment: CYP450 inhibition assay, human liver microsomes; assay type: biochemical; set-up: from tissue; host or cells: human liver microsomes (per the earlier reading and the cited method); settings: substrate paclitaxel

CC(C)(O)c1ccccc1CC[C@@H](SCC1(CC(=O)O)CC1)c1cccc(/C=C/c2ccc3ccc(Cl)cc3n2)c1 [montelukast]
inhibition at 30 min, 1 µM [1]: 100%
nH (hill coefficient) [2]: 0.6
